Data reported in patent US20250144094A1 (Erasca, Inc., priority 2021, published 2025).

Molecular target: Recombinant human ULK1 (1-649) (Homo sapiens (Human), UniProt O75385)
Test: ULK1 ADP Glo kinase activity assay, new method (ULKtide peptide substrate)
Settings: 25° C., 40 minutes, read-out: ULK1 biochemical IC50
Protocol: Recombinant human ULK1 (1-649) protein expressed in Sf9 insect cells was obtained from SignalChem (Vancouver, BC), catalog #U01-11G. Active kinase was purified via N-terminal GST tag to >85% purity.
ADP GLO Kinase Assay Reagents were obtained from Promega Corp (Madison, WI), catalog #V9104.
Synthetic peptide substrate (ULKtide) with the amino acid sequence YANWLAASIYLDGKKK was obtained from ThermoFisher Scientific USA.
ULK1 inhibitor potency was determined using the luminescent ADP Glo Kinase Assay (Promega), a universal ADP detection system that measures kinase activity by quantifying the amount of ADP produced during a kinase reaction. ULK1 kinase reactions are performed in a standard 96-well microplate (20 μL reaction volume) at 25° C. for 40 minutes in the presence or absence of the test compound (12-point dilution series starting at 10 μM). Addition of peptide substrate and ATP initiates the kinase reaction.
The standard ADP Glo assay is performed in two steps. In step one, following the kinase reaction, an equal volume of ADP-Glo™ Reagent (20 μL) is added to terminate the kinase reaction and deplete the remaining ATP. In the second step, the Kinase Detection Reagent (10 μL) is added to simultaneously convert ADP to ATP and allow the newly synthesized ATP to be measured using a luciferase/luciferin reaction. Step two of the ADP Glo assay is performed in a white 384-well plate (20 μL final volume). Thirty minutes after the addition of the Detection reagent, light generated from the luciferase reaction is measured (1 second exposure) using a microplate compatible luminometer (CLARIOstar, BMG Labtech).
Inhibition of ULK1 kinase activity is determined for each test compound by comparison to DMSO only control wells. Inhibitor IC50 was calculated by plotting the change in luminescence after 30 minutes (response) versus inhibitor concentration (in log molar) then applying the four-parameter variable slope curve fit (GraphPad Prism). Inhibition of ULK1 in biochemical assay is found in Table 4.

Sequence of Recombinant human ULK1 (1-649) (O75385 1-649): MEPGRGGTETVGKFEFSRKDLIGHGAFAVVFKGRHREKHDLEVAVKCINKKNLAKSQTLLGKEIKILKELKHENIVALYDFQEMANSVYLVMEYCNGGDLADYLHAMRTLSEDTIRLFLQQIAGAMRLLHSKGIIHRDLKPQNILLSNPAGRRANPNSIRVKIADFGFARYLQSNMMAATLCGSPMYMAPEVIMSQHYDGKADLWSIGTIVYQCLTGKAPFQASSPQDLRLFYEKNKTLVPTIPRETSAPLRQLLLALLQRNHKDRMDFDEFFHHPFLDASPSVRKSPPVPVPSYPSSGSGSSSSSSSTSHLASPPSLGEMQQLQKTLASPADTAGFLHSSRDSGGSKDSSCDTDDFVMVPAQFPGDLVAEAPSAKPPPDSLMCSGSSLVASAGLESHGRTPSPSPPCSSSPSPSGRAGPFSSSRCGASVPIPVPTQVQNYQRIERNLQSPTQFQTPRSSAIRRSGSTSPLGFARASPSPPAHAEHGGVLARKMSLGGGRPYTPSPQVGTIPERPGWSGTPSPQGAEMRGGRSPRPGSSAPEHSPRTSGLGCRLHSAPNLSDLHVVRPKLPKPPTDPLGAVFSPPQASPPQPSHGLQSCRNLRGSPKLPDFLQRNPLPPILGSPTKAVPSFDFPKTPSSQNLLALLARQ

Compound: 4-cyclopropyl-7-(2-((4-(1-(2,2-difluoroethyl)piperidin-4-yl)-2-ethylphenyl)amino)-5-(trifluoromethyl)pyrimidin-4-yl)-3,4-dihydrothieno[2,3-f][1,4]thiazepin-5(2H)-one 1,1-dioxide [Example 281]
- IC50: 5 to 10 nM

Compound: Cc1ccc(C2CNC2)cc1Nc1ncc(C(F)(F)F)c(-c2cc(S(C)(=O)=O)cs2)n1 [Example 136, N-(5-(azetidin-3-yl)-2-methylphenyl)-4-(4-(methylsulfonyl)thiophen-2-yl)-5-(trifluoromethyl)pyrimidin-2-amine]
- IC50: 50 to 100 nM

Compound: Cc1ccc(C2CN(C)C2)cc1Nc1ncc(C(F)(F)F)c(-c2cc(S(C)(=O)=O)cs2)n1 [Example 137, N-(2-Methyl-5-(1-methylazetidin-3-yl)phenyl)-4-(4-(methylsulfonyl)thiophen-2-yl)-5-(trifluoromethyl)pyrimidin-2-amine]
- IC50: > 100 nM

Compound: CCc1cc2c(cc1Nc1ncc(C(F)(F)F)c(-c3cc4c(s3)C(=O)NCCS4(=O)=O)n1)CCNC2 [Example 138, 7-(2-((7-ethyl-1,2,3,4-tetrahydroisoquinolin-6-yl)amino)-5-(trifluoromethyl)pyrimidin-4-yl)-3,4-dihydrothieno[2,3-f][1,4]thiazepin-5(2H)-one 1,1-dioxide]
- IC50: ≤ 5 nM

Compound: CN1CCc2cc(Nc3ncc(C(F)(F)F)c(-c4cc5c(s4)C(=O)NCCS5(=O)=O)n3)c(F)cc2C1 [Example 139, 7-(2-((7-fluoro-2-methyl-1,2,3,4-tetrahydroisoquinolin-6-yl)amino)-5-(trifluoromethyl)pyrimidin-4-yl)-3,4-dihydrothieno[2,3-f][1,4]thiazepin-5(2H)-one 1,1-dioxide]
- IC50: ≤ 5 nM

Compound: CN1CCc2cc(Nc3ncc(C(F)(F)F)c(-c4cc5c(s4)C(=O)N(C)CCS5(=O)=O)n3)c(F)cc2C1 [Example 140, 7-(2-((7-fluoro-2-methyl-1,2,3,4-tetrahydroisoquinolin-6-yl)amino)-5-(trifluoromethyl)pyrimidin-4-yl)-4-methyl-3,4-dihydrothieno[2,3-f][1,4]thiazepin-5(2H)-one 1,1-dioxide]
- IC50: ≤ 5 nM

Compound: CN1CCS(=O)(=O)c2cc(-c3nc(Nc4cn(C5CCNCC5)nc4C4CC4)ncc3C(F)(F)F)sc2C1=O [Example 141, 7-(2-((3-cyclopropyl-1-(piperidin-4-yl)-1H-pyrazol-4-yl)amino)-5-(trifluoromethyl)pyrimidin-4-yl)-4-methyl-3,4-dihydrothieno[2,3-f][1,4]thiazepin-5(2H)-one 1,1-dioxide]
- IC50: ≤ 5 nM

Compound: CCN1CCS(=O)(=O)c2cc(-c3nc(Nc4cc5c(cc4Cl)CN(C)CC5)ncc3C(F)(F)F)sc2C1=O [Example 142, 7-(2-((7-chloro-2-methyl-1,2,3,4-tetrahydroisoquinolin-6-yl)amino)-5-(trifluoromethyl)pyrimidin-4-yl)-4-ethyl-3,4-dihydrothieno[2,3-f][1,4]thiazepin-5(2H)-one 1,1-dioxide]
- IC50: ≤ 5 nM

Compound: O=C1c2sc(-c3nc(Nc4cc5c(cc4Cl)CNCC5)ncc3C(F)(F)F)cc2S(=O)(=O)CCN1CC(F)(F)F [Example 143, 7-(2-((7-chloro-1,2,3,4-tetrahydroisoquinolin-6-yl)amino)-5-(trifluoromethyl)pyrimidin-4-yl)-4-(2,2,2-trifluoroethyl)-3,4-dihydrothieno[2,3-f][1,4]thiazepin-5(2H)-one 1,1-dioxide]
- IC50: ≤ 5 nM

Compound: CN1CCc2cc(Nc3ncc(C(F)(F)F)c(-c4cc5c(s4)C(=O)N(CC(F)(F)F)CCS5(=O)=O)n3)c(Cl)cc2C1 [Example 144, 7-(2-((7-chloro-2-methyl-1,2,3,4-tetrahydroisoquinolin-6-yl)amino)-5-(trifluoromethyl)pyrimidin-4-yl)-4-(2,2,2-trifluoroethyl)-3,4-dihydrothieno[2,3-f][1,4]thiazepin-5(2H)-one 1,1-dioxide]
- IC50: ≤ 5 nM

Compound: CN1CC(n2cc(Nc3ncc(C(F)(F)F)c(-c4cc(S(C)(=O)=O)cs4)n3)c(C3CC3)n2)C1 [Example 145, N-(3-cyclopropyl-1-(1-methylazetidin-3-yl)-1H-pyrazol-4-yl)-4-(4-(methylsulfonyl)thiophen-2-yl)-5-(trifluoromethyl)pyrimidin-2-amine]
- IC50: 5 to 10 nM

Compound: CCc1cc2c(cc1Nc1ncc(C(F)(F)F)c(-c3cc4c(s3)C(=O)NCCS4(=O)=O)n1)CCN(C)C2 [Example 146, 7-(2-((7-ethyl-2-methyl-1,2,3,4-tetrahydroisoquinolin-6-yl)amino)-5-(trifluoromethyl)pyrimidin-4-yl)-3,4-dihydrothieno[2,3-f][1,4]thiazepin-5(2H)-one 1,1-dioxide]
- IC50: ≤ 5 nM

Compound: CCc1cc2c(cc1Nc1ncc(C(F)(F)F)c(-c3cc4c(s3)C(=O)N(C)CCS4(=O)=O)n1)CCNC2 [Example 147, 7-(2-((7-ethyl-1,2,3,4-tetrahydroisoquinolin-6-yl)amino)-5-(trifluoromethyl)pyrimidin-4-yl)-4-methyl-3,4-dihydrothieno[2,3-f][1,4]thiazepin-5(2H)-one 1,1-dioxide]
- IC50: ≤ 5 nM

Compound: CCc1cc2c(cc1Nc1ncc(C(F)(F)F)c(-c3cc4c(s3)C(=O)N(C)CCS4(=O)=O)n1)CCN(C)C2 [Example 148, 7-(2-((7-ethyl-2-methyl-1,2,3,4-tetrahydroisoquinolin-6-yl)amino)-5-(trifluoromethyl)pyrimidin-4-yl)-4-methyl-3,4-dihydrothieno[2,3-f][1,4]thiazepin-5(2H)-one 1,1-dioxide]
- IC50: ≤ 5 nM

Compound: CN1CCS(=O)(=O)c2cc(-c3nc(Nc4cc(C5CCNCC5)ccc4Cl)ncc3C(F)(F)F)sc2C1=O [Example 149, 7-(2-((2-chloro-5-(piperidin-4-yl)phenyl)amino)-5-(trifluoromethyl)pyrimidin-4-yl)-4-methyl-3,4-dihydrothieno[2,3-f][1,4]thiazepin-5(2H)-one 1,1-dioxide]
- IC50: 10 to 50 nM

Compound: CN1CCC(c2ccc(Cl)c(Nc3ncc(C(F)(F)F)c(-c4cc5c(s4)C(=O)N(C)CCS5(=O)=O)n3)c2)CC1 [Example 150, 7-(2-((2-chloro-5-(1-methylpiperidin-4-yl)phenyl)amino)-5-(trifluoromethyl)pyrimidin-4-yl)-4-methyl-3,4-dihydrothieno[2,3-f][1,4]thiazepin-5(2H)-one 1,1-dioxide]
- IC50: 10 to 50 nM

Compound: O=C1NCCS(=O)(=O)c2cc(-c3nc(Nc4cn(C5CCNCC5)nc4C4CC4)ncc3C(F)(F)F)sc21 [Example 151, 7-(2-((3-cyclopropyl-1-(piperidin-4-yl)-1H-pyrazol-4-yl)amino)-5-(trifluoromethyl)pyrimidin-4-yl)-3,4-dihydrothieno[2,3-f][1,4]thiazepin-5(2H)-one 1,1-dioxide]
- IC50: ≤ 5 nM

Compound: CN1CCC(n2cc(Nc3ncc(C(F)(F)F)c(-c4cc5c(s4)C(=O)NCCS5(=O)=O)n3)c(C3CC3)n2)CC1 [Example 152, 7-(2-((3-cyclopropyl-1-(1-methylpiperidin-4-yl)-1H-pyrazol-4-yl)amino)-5-(trifluoromethyl)pyrimidin-4-yl)-3,4-dihydrothieno[2,3-f][1,4]thiazepin-5(2H)-one 1,1-dioxide]
- IC50: ≤ 5 nM

Compound: CN1CCc2cc(Nc3ncc(C(F)(F)F)c(-c4cc5c(s4)C(=O)N(CC4CC4)CCS5(=O)=O)n3)c(Cl)cc2C1 [Example 154, 7-(2-((7-chloro-2-methyl-1,2,3,4-tetrahydroisoquinolin-6-yl)amino)-5-(trifluoromethyl)pyrimidin-4-yl)-4-(cyclopropylmethyl)-3,4-dihydrothieno[2,3-f][1,4]thiazepin-5(2H)-one 1,1-dioxide]
- IC50: ≤ 5 nM

Compound: O=C1c2sc(-c3nc(Nc4cc5c(cc4Cl)CNCC5)ncc3C(F)(F)F)cc2S(=O)(=O)CCN1C1CC1 [Example 155, 7-(2-((7-chloro-1,2,3,4-tetrahydroisoquinolin-6-yl)amino)-5-(trifluoromethyl)pyrimidin-4-yl)-4-cyclopropyl-3,4-dihydrothieno[2,3-f][1,4]thiazepin-5(2H)-one 1,1-dioxide]
- IC50: ≤ 5 nM

Compound: CN1CCS(=O)(=O)c2cc(-c3nc(Nc4cc5c(cc4Cl)CNCC5)ncc3C(F)(F)F)sc2C1=O [Example 156, 7-(2-((7-chloro-1,2,3,4-tetrahydroisoquinolin-6-yl)amino)-5-(trifluoromethyl)pyrimidin-4-yl)-4-methyl-3,4-dihydrothieno[2,3-f][1,4]thiazepin-5(2H)-one 1,1-dioxide]
- IC50: ≤ 5 nM

Compound: CN1CCS(=O)(=O)c2cc(-c3nc(Nc4cc5c(cc4F)CNC5)ncc3C(F)(F)F)sc2C1=O [Example 157, 7-(2-((6-fluoroisoindolin-5-yl)amino)-5-(trifluoromethyl)pyrimidin-4-yl)-4-methyl-3,4-dihydrothieno[2,3-f][1,4]thiazepin-5(2H)-one 1,1-dioxide]
- IC50: ≤ 5 nM

Compound: O=C1c2sc(-c3nc(Nc4cc5c(cc4Cl)CNCC5)ncc3C(F)(F)F)cc2S(=O)(=O)CCN1C1CCC1 [Example 158, 7-(2-((7-chloro-1,2,3,4-tetrahydroisoquinolin-6-yl)amino)-5-(trifluoromethyl)pyrimidin-4-yl)-4-cyclobutyl-3,4-dihydrothieno[2,3-f][1,4]thiazepin-5(2H)-one 1,1-dioxide]
- IC50: ≤ 5 nM
